Measurements reported in patent US20230140298A1, “TOPICAL COMPOSITION COMPRISING RETINOL AND PDRN AND USE OF SAME” (DR. J SKINCLINIC, INC., priority 2021, published 2023).

Assays:
Format in all cases: cell-based, human
IL-8 = experiment: Retinol-induced IL-8 release in HaCaT cells (ELISA); settings: 10 μM all-trans retinol, 48 hours
Procedure: (§1) Referring to FIG. 1, immortalized human keratinocytes HaCaT cells were cultured in 96-well plates and treated with 10 μM of all-trans retinol (Sigma-Aldrich, St. Louis, Mo.) and c-PDRN® obtained from (PharmaResearch, Seongnam-si, Gyeonggi-do, Korea) at the indicated concentrations. […] The levels of secreted cytokine were normalized against a standard dose-response curve. c-PDRN is a hydrolyzed DNA fragment mixture extracted from the testes of adult salmon (Oncorhynchus keta, Salmonidae) The inhibitory effects of c-PDRN were evaluated on retinol-induced secretion of MCP-1 or IL-8 in cultured human keratinocytes, HaCaT cells by enzyme-linked immunosorbent assay (ELISA) to study IL-8, MCP-1 signaling pathway. The cultured HaCaT cells were treated with 10 μM all-trans retinol prior to c-PDRN treatment at the indicated concentrations. After incubation for 48 hours, the levels of secreted IL-8 or MCP-1 were measured and normalized against a standard IL-8 or MCP-1 dose-response curve. Data were shown as the means of three individual experiments with five wells per group. All-trans retinol induced increases in IL-8 and MCP-1 secretion by 8-fold and 1.4-fold, respectively. Efficacy range was c-PDRN 10 ppm ˜100 ppm or 0.001%-0.01%.

MCP-1 = experiment: Retinol-induced MCP-1 release in HaCaT cells (ELISA); settings: 10 μM all-trans retinol, 48 hours
Procedure: as §1

p38 = experiment: Expression and phosphorylation of p38 in HaCaT cells (Western blot); settings: 10 μM all-trans retinol, 48 hours, FIG. 3
Procedure: Referring to FIG. 1, altered signaling pathways in the retinol-treated HaCaT cells were investigated. The HaCaT cells were harvested 48 hours after treatment of retinol and c-PDRN at the indicated concentrations, and expression and phosphorylation levels of inflammation-related signaling mediator, p38 were determined using Western blot. Antibodies against p38 or phosphorylated p38 (p-p38) were purchased from Cell Signaling Technology (Danvers, Mass.). The expression and phosphorylation levels of inflammation-related signaling mediator, p38 were evaluated after treatment with 10 μM all-trans retinol and c-PDRN at the indicated concentrations using Western blot to study p38 signaling pathway.

CC1=C(/C=C/C(C)=C/C=C/C(C)=C/CO)C(C)(C)CCC1 [All-trans retinol, all-trans retinol]
increase in IL-8 secretion (IL-8): 8 fold | increase in MCP-1 secretion (MCP-1): 1.4 fold | phosphorylation of p38 protein induced (p38): 1.6 fold
